Assay results: US20120009280A1, “METHOD OF REDUCING THE RATE OF DEGRADATION OF A BIOLOGICAL MATERIAL” (Bio-Energy Ingredients Limited, priority 2009, published 2012)

How the values were obtained:
[1] = tested on: mould; assay: Mould count of spent brewer's / wet distiller's grains stored at ambient temperature; type: cell-based
Method: Samples of Portion 1 (“AR”), Portion 3 (“SO”) and Portion 5 (“SH”) were then delivered to a microbiological testing facility about 15 kilometres from the treatment laboratory. Each was tested for initial total microbial, yeast and mould counts, respectively.
Separate untreated samples were similarly stored under insect-proof screens at ambient temperature for seven days (as shown in Tables 1 and 2). During the trial period the ambient temperature ranged from 11 to 33 degrees C.
(§1) The free moisture content on the initial spent brewer's grains was determined to be 78.1% m/m. After exposure to the environment for seven days, all of the samples were tested at a South African National Accreditation System (SANAS) approved microbiological testing facility. Each was tested for total micro-organism, yeast and mould counts to determine the affect of the various treatments. A similar procedure to that described in K. A. Rosentrater et al, Food Bioprocess Technol (2008) was used for the microbiological evaluation.
At the laboratory, the samples were thoroughly mixed and initially split into a first portion (Portion 1) and a second portion (Portion 2). Portion 1 was left untreated. A sample of Portion 1, was delivered immediately to a microbiological testing facility about 15 kilometres away from the treatment laboratory and was tested for initial total microbial, yeast and mould counts, respectively. No water removal prior to treatment was done in this experiment as was the case in Example 8 wherein a similar wet material was partially dewatered by pressing and the residue treated with 10% (w/w/) calcium oxide.
Samples from Portion 2 were subjected to treatment with varying amounts of a powdered, commercially-available calcium oxide containing approximately 94% calcium oxide (CaO) as shown in Table 32. […] The samples were stored in batches (according to the calcium oxide treatment) under insect-proof screens at ambient temperature for fifty six days. Separate untreated samples were similarly stored under insect-proof screens at ambient temperature for a total of 56 days. During the trial period the ambient temperature ranged from 10 to 30 degrees C. As this period was the southern hemisphere spring/early summer, the humidity as well as ambient temperatures varied widely.
as §1, with “79.4%” for “78.1%”
Samples from each treatment were drawn every seven days. No further calcium oxide treatment or agitation took place after the initial mix. In each case the entire sample was isolated and delivered to the microbiological testing facility.
The calcium oxide treatment trial described in Example 9 wherein wet distiller's grains were treated with 2.5%, 5% and 10.0% calcium oxide, respectively, versus untreated material was repeated using lower doses of calcium oxide. In this trial the same source of wet distiller's grains (again with now partial water removal prior to treatment) was treated. Also, the same protocol as described in Example 9 was applied, but at lower doses of calcium oxide i.e. 0.5%, 1.0%, 1.5%, 2.0% and 2.5%, respectively, versus untreated material.
In this trial the same source of wet distiller's grains (again with now partial water removal prior to treatment) was treated. Also, the same protocol as described in Example 9 was applied.

[2] = pH of suspensions of grain samples in distilled water or PBS; conditions: 1% (w/w) in distilled water
Method: The untreated sample (A) was compared visually against the corresponding quicklime-treated sample (B).
On Day 7, 10 g amounts of each sample were suspended in either 90 ml PBS or 90 ml sterile distilled water and shaken for 10 minutes. The pH of each suspension was then measured and compared.
On Day 9, 10 g of each sample was suspended in 90 ml PBS and shaken for 10 minutes. The pH was measured.

[3] = 10% Ca-DGO (w/w) granules, week 1
[4] = 10% Ca-DGO (w/w) granules, week 2
[5] = 10% Ca-DGO (w/w) granules, week 3
[6] = 10% Ca-DGO (w/w) granules, week 4
[7] = 10% Ca-DGO (w/w) granules, week 5
[8] = 10% Ca-DGO (w/w) powder, week 1
[9] = 10% Ca-DGO (w/w) powder, week 2
[10] = 10% Ca-DGO (w/w) powder, week 3
[11] = 10% Ca-DGO (w/w) powder, week 4
[12] = 10% Ca-DGO (w/w) powder, week 5
[13] = 20% Ca-DGO (w/w) powder, week 1
[14] = 20% Ca-DGO (w/w) powder, week 2
[15] = 20% Ca-DGO (w/w) powder, week 3
[16] = 20% Ca-DGO (w/w) powder, week 4
[17] = 20% Ca-DGO (w/w) powder, week 5
[18] = 40% Ca-DGO (w/w) powder, week 1
[19] = 40% Ca-DGO (w/w) powder, week 2
[20] = 40% Ca-DGO (w/w) powder, week 3
[21] = 40% Ca-DGO (w/w) powder, week 4
[22] = 40% Ca-DGO (w/w) powder, week 5

SMILES: [Ca+2].[O-]CC(O)CO.[O-]CC(O)CO [calcium diglyceroxide]
- Mould Count [1, 3]: 10 cfu/gram
- Mould Count [1, 4]: <10 cfu/gram
- Mould Count [1, 5]: <10 cfu/gram
- Mould Count [1, 6]: <10 cfu/gram
- Mould Count [1, 7]: <10 cfu/gram
- Mould Count [1, 8]: <10 cfu/gram
- Mould Count [1, 9]: <10 cfu/gram
- Mould Count [1, 10]: <10 cfu/gram
- Mould Count [1, 11]: 310 cfu/gram
- Mould Count [1, 12]: 1020 cfu/gram
- Mould Count [1, 13]: 10 cfu/gram
- Mould Count [1, 14]: 10 cfu/gram
- Mould Count [1, 15]: 10 cfu/gram
- Mould Count [1, 16]: 10 cfu/gram
- Mould Count [1, 17]: 10 cfu/gram
- Mould Count [1, 18]: 10 cfu/gram
- Mould Count [1, 19]: 10 cfu/gram
- Mould Count [1, 20]: 10 cfu/gram
- Mould Count [1, 21]: 10 cfu/gram
- Mould Count [1, 22]: 10 cfu/gram
- pH [2, 3]: 7.88
- pH [2, 4]: 7.71
- pH [2, 5]: 7.44
- pH [2, 6]: 7.14
- pH [2, 7]: 8.37
- pH [2, 8]: 9.43
- pH [2, 9]: 7.32
- pH [2, 10]: 7.31
- pH [2, 11]: 8.01
- pH [2, 12]: 7.23
- pH [2, 13]: 11.47
- pH [2, 14]: 11.16
- pH [2, 15]: 12.00
- pH [2, 16]: 11.23
- pH [2, 17]: 10.83
- pH [2, 18]: 11.66
- pH [2, 19]: 11.50
- pH [2, 20]: 12.30
- pH [2, 21]: 11.52
- pH [2, 22]: 11.13
